{"source": "patent US20230241071A1", "about": "“COMBINATION TREATMENT OF LIVER DISORDERS” (Terns Pharmaceuticals, Inc., priority 2021, published 2023)", "key": {"SSAO": {"target": "T1, SSAO (Homo sapiens, UniProt Q16853)", "T1 construct": "from tissue; host or cells: human plasma from dosed participants", "T1 sequence (Q16853 29-763 limits assumed)": "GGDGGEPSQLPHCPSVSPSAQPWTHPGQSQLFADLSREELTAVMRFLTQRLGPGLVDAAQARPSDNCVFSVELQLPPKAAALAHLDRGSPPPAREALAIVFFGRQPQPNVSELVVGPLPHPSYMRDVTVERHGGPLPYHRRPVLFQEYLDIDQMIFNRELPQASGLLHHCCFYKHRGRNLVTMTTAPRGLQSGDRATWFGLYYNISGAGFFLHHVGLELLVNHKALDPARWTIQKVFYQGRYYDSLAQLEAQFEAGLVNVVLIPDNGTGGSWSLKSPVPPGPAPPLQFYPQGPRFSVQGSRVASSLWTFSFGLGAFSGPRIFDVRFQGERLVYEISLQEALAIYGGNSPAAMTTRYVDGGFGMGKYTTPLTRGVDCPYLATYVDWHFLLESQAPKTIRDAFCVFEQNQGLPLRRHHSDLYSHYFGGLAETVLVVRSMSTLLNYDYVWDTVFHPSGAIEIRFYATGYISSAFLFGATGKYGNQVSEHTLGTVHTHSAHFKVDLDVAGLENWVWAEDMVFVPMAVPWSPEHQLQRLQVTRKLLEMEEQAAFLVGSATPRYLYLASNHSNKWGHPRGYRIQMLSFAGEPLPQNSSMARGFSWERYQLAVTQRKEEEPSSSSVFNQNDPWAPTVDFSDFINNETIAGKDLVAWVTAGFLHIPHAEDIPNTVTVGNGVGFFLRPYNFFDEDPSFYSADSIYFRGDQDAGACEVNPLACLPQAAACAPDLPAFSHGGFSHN", "assay": "Plasma SSAO activity and methylamine, multiple doses of Compound 1", "assay_type": "in vivo", "experimental": "A multiple-ascending dose clinical trial of Compound 1 was performed."}, "[1]": {"system": "SHBG, Apo B and serum lipids", "assay": "Single-ascending dose trial of Compound 2: serum PD markers", "assay_type": "in vivo, human", "set-up": "LDL-c change from baseline / HDL-c change from baseline / TC change from baseline / Apo B change from baseline: unit not given here", "experimental": "Urine samples for Compound 2 concentration and PK sampling were collected pre-dose and at the following timepoints: 0-6 hours, 6-12 hours, 12-24 hours, and 24-48 hours. PK parameters were estimated via noncompartmental methods using Phoenix® WinNonlin® (Certara, LP, Princeton, N.J.). Concentrations of serum pharmacodynamic (PD) biomarkers apolipoprotein B (Apo B) and sex hormone binding globulin (SHBG) were measured using an immunoassay and serum lipids were determined using spectrophotometry.\nPD sampling was performed pre-dose, and 48 hours and 72 hours post-dose. Percent change from baseline for PD markers were calculated using an ANCOVA model with percent change from baseline as dependent variable, treatment group as fixed effect, and baseline as covariate. Analyses used observed data only without imputation for missing data."}, "OATP1B3": {"target": "T2, OATP1B3 (Homo sapiens, UniProt Q9NPD5)", "T2 sequence (Q9NPD5 1-702)": "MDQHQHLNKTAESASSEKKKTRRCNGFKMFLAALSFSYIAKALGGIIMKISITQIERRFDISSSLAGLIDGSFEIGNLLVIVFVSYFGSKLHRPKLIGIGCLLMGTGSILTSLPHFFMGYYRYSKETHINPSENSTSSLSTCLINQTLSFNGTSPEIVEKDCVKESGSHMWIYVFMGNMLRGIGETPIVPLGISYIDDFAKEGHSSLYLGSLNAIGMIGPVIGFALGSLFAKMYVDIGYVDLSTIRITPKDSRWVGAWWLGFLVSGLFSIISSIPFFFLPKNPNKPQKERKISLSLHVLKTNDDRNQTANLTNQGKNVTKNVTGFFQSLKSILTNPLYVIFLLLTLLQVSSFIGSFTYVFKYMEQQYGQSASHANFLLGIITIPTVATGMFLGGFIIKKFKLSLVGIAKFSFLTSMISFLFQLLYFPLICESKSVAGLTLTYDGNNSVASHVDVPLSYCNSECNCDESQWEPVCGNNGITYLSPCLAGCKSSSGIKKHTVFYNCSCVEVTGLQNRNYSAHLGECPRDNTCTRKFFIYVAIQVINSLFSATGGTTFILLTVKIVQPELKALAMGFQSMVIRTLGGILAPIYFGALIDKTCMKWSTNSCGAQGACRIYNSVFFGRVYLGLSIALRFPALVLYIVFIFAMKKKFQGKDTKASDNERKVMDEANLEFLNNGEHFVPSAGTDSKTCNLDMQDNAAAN", "assay": "In vitro transporter inhibition, OATP1B3", "assay_type": "in vitro ADME"}, "[2]": {"assay": "Multiple ascending doses of Compound 2 in healthy subjects with elevated LDL-c", "assay_type": "in vivo, human", "details": "1, 3, 6, 10 mg QD 14 days", "experimental": "Healthy volunteers with mildly elevated LDL-c were randomized 3:1 to Compound 2 (n=6) or placebo (n=2). Volunteers randomized to Compound 2 received multiple doses of 1, 3, 6 or 10 mg of Compound 2 once daily for 14 days in the MAD cohort of the study."}, "P-glycoprotein (P-gp)": {"target": "P-glycoprotein (P-gp) (Homo sapiens, UniProt P08183)", "sequence (P08183 whole entry)": "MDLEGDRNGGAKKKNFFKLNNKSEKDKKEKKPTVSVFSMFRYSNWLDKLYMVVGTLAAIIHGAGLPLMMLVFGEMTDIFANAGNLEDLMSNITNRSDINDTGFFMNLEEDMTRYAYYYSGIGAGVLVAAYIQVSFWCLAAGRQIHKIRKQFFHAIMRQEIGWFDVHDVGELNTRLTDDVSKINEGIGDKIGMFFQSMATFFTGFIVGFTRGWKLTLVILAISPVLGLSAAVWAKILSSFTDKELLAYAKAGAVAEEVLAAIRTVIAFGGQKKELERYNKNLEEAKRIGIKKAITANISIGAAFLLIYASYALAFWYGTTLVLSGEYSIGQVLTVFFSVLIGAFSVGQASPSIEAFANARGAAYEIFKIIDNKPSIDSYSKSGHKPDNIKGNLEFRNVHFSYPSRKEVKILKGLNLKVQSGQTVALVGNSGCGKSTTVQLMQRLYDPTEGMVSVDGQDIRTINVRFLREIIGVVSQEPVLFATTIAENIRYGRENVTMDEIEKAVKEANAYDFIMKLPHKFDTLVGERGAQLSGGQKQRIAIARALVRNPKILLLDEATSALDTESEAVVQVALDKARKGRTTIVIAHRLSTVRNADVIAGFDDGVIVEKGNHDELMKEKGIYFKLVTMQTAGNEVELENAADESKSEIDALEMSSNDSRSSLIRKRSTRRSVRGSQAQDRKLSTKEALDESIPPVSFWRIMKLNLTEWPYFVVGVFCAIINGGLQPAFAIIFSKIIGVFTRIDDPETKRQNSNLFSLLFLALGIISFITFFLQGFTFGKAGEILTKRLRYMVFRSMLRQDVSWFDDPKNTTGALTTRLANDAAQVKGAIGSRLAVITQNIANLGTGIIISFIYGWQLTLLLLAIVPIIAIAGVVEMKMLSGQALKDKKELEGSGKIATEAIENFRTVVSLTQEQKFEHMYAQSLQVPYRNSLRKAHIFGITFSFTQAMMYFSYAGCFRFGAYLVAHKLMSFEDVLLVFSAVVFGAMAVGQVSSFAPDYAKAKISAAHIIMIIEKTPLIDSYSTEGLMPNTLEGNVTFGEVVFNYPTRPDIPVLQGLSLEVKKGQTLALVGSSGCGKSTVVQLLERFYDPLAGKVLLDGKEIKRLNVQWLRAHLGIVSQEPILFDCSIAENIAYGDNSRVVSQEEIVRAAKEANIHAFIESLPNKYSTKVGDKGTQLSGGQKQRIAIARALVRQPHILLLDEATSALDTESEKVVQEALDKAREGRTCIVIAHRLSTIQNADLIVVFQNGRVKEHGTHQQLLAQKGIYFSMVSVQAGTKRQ", "assay_type": "in vitro ADME"}, "[3]": {"details": "Day 3 after single dose 3 mg (n = 6)"}, "[4]": {"details": "Day 3 after single dose 10 mg (n = 6)"}, "[5]": {"details": "Day 3 after single dose 30 mg (n = 6)"}, "[6]": {"details": "Day 3 after single dose 60 mg (n = 6)"}}, "data": [{"smiles": "COC1CCN(c2ncc(OC/C(=C/F)CN)cn2)CC1", "note": "[Compound 1, (E)-3-fluoro-2-(((2-(4-methoxypiperidin-1-yl)pyrimidin-5-yl)oxy)methyl)prop-2-en-1-amine]", "values": [{"measurement": "suppression of plasma VAP-1/SSAO-specific amine oxidase activity", "setting": "SSAO; 10 mg, healthy participants (Example 2)", "value": "> 90", "unit": "%"}, {"measurement": "inhibition of plasma SSAO activity", "setting": "SSAO; Day 1, all dose cohorts", "value": "Near complete inhibition"}, {"measurement": "plasma methylamine levels", "setting": "SSAO; first daily dose 1, 4, 10 mg", "value": "increased in a dose proportional manner"}, {"measurement": "duration of inhibition of plasma SSAO amine oxidase activity after cessation of dosing", "setting": "SSAO; multiple QD doses", "value": "up to 2 weeks"}]}, {"smiles": "N#Cc1nn(-c2cc(Cl)c(Oc3n[nH]c(=O)c4ccccc34)c(Cl)c2)c(=O)[nH]c1=O", "note": "[Compound 2, 2-(3,5-dichloro-4-((4-oxo-3,4-dihydrophthalazin-1-yl)oxy)phenyl)-3,5-dioxo-2,3,4,5-tetrahydro-1,2,4-triazine-6-carbonitrile]", "values": [{"measurement": "LDL-c, total cholesterol, and Apo-B", "setting": "[1]; Day 3 after single dose", "value": "Dose-dependent decreases"}, {"measurement": "Apo B LSM % change", "setting": "[1]; [3]", "value": "−2.7", "unit": "%"}, {"measurement": "Apo B change from baseline", "setting": "[1]; [3]", "value": "−1.5"}, {"measurement": "HDL-c LSM % change", "setting": "[1]; [3]", "value": 2.4, "unit": "%"}, {"measurement": "HDL-c change from baseline", "setting": "[1]; [3]", "value": 0.87}, {"measurement": "LDL-c LSM % change", "setting": "[1]; [3]", "value": "−3.1", "unit": "%"}, {"measurement": "LDL-c change from baseline", "setting": "[1]; [3]", "value": "−3.98"}, {"measurement": "SHBG LSM % change", "setting": "[1]; [3]", "value": 6.3, "unit": "%"}, {"measurement": "SHBG change from baseline", "setting": "[1]; [3]", "value": 0.20, "unit": "nmol/L"}, {"measurement": "TC LSM % change", "setting": "[1]; [3]", "value": "−0.88", "unit": "%"}, {"measurement": "TC change from baseline", "setting": "[1]; [3]", "value": "−1.85"}, {"measurement": "Apo B LSM % change", "setting": "[1]; [4]", "value": "−6.0", "unit": "%"}, {"measurement": "Apo B change from baseline", "setting": "[1]; [4]", "value": "−5.6"}, {"measurement": "HDL-c LSM % change", "setting": "[1]; [4]", "value": "−1.0", "unit": "%"}, {"measurement": "HDL-c change from baseline", "setting": "[1]; [4]", "value": "−1.1"}, {"measurement": "LDL-c LSM % change", "setting": "[1]; [4]", "value": 0.70, "unit": "%"}, {"measurement": "LDL-c change from baseline", "setting": "[1]; [4]", "value": 0.68}, {"measurement": "SHBG LSM % change", "setting": "[1]; [4]", "value": 31.3, "unit": "%"}, {"measurement": "SHBG change from baseline", "setting": "[1]; [4]", "value": 15.8, "unit": "nmol/L"}, {"measurement": "TC LSM % change", "setting": "[1]; [4]", "value": "−0.84", "unit": "%"}, {"measurement": "TC change from baseline", "setting": "[1]; [4]", "value": "−1.93"}, {"measurement": "Apo B LSM % change", "setting": "[1]; [5]", "value": "−11.0", "unit": "%"}, {"measurement": "Apo B change from baseline", "setting": "[1]; [5]", "value": "−11.5"}, {"measurement": "HDL-c LSM % change", "setting": "[1]; [5]", "value": "−12.1", "unit": "%"}, {"measurement": "HDL-c change from baseline", "setting": "[1]; [5]", "value": "−6.1"}, {"measurement": "LDL-c LSM % change", "setting": "[1]; [5]", "value": "−12.5", "unit": "%"}, {"measurement": "LDL-c change from baseline", "setting": "[1]; [5]", "value": "−15.7"}, {"measurement": "SHBG LSM % change", "setting": "[1]; [5]", "value": 16.5, "unit": "%"}, {"measurement": "SHBG change from baseline", "setting": "[1]; [5]", "value": 6.0, "unit": "nmol/L"}, {"measurement": "TC LSM % change", "setting": "[1]; [5]", "value": "−11.84", "unit": "%"}, {"measurement": "TC change from baseline", "setting": "[1]; [5]", "value": "−24.14"}, {"measurement": "Apo B LSM % change", "setting": "[1]; [6]", "value": "−15.75", "unit": "%"}, {"measurement": "Apo B change from baseline", "setting": "[1]; [6]", "value": "−13.9"}, {"measurement": "SHBG LSM % change", "setting": "[1]; [6]", "value": 13.8, "unit": "%"}, {"measurement": "SHBG change from baseline", "setting": "[1]; [6]", "value": 5.05, "unit": "nmol/L"}, {"measurement": "triglyceride levels", "setting": "[1]; after a single dose", "value": "No significant changes"}, {"measurement": "SHBG relative to placebo", "setting": "[1]; single doses of ≥10 mg", "value": "Significant increases"}, {"measurement": "IC50", "setting": "OATP1B3", "value": 710, "unit": "nM"}, {"measurement": "PK dose proportionality and variability", "setting": "[2]", "value": "dose-proportional PK with low variability"}, {"measurement": "SHBG", "setting": "[2]", "value": "increased SHBG"}, {"measurement": "circulating atherogenic lipid levels (LDL-c, Apo B, total cholesterol, triglycerides)", "setting": "[2]", "value": "significant decreases"}, {"measurement": "free T4", "setting": "[2]", "value": "Dose-dependent declines"}, {"measurement": "safety and tolerability", "setting": "[2]", "value": "generally safe and well-tolerated"}, {"measurement": "subjects with ALT increase to ≥2×ULN", "setting": "[2]", "value": "No subject"}]}, {"smiles": "Cn1cc(C(=O)O)c2ccc(N3CCC(OCc4c(-c5c(Cl)cccc5Cl)noc4C4CC4)CC3)cc21", "note": "[Compound 3]", "values": [{"measurement": "IC50", "setting": "P-glycoprotein (P-gp)", "value": 3920, "unit": "nM"}]}]}
